Results from US11865158B2, “Process and composition matter of nanoparticle formulation for systemic treatment of sepsis” (PURDUE RESEARCH FOUNDATION, priority 2019, dated 2024).
In brackets after ≈: the same amount, converted by molar mass.

How the values were obtained:
Test in all cases: Minimum inhibitory concentration, broth microdilution
Type in all cases: cell-based
[1] = tested on: Escherichia coli ATCC 2469
Excerpt: (§1) Bacterial cell lines and reagents. Escherichia coli ATCC 2452 (NDM-1, isolated in Pakistan) was New Delhi metallo-beta-lactamase (NDM-1) positive, blaNDM positive by PCR, and carbepenem-resistant (Imipenem and Ertapenem). Escherichia coli ATCC 2469 (1001728, isolated from human urine) was New Delhi metallo-beta-lactamase (NDM-1) positive, blaKPC negative and blaNDM positive by PCR, and Carbepenem-resistant (Imipenem and Ertapenem). Klebsiella pneumoniae (NR-41920, isolated in 2008 from human blood culture in Boston, Massachusetts, USA) was Carbapenem-resistant strain, blaKPC-3 positive by PCR, and resistant to amikacin, ampicillin/sulbactam, cefazolin, cefepime, ceftazidime, ceftriaxone, cefuroxime, ciprofloxacin, gentamicin, meropenem, piperacillin/tazobactam, tobramicin and trimethoprim/sulfamethoxazole. Pseudomonas aeruginosa (NR-50573, isolated in early 1970s from the blood of a burn patient at Mercy Hospital in Pittsburgh, Pennsylvania, USA) was resistant to rifampicin and susceptible to meropenem, ofloxacin, ceftazidime, amikacin, and tobramycin. 0.5 McFarland standard was purchased from ThermoFisher scientific (Waltham, MA, USA). Mueller-Hinton broth and tryptone soy agar plates were purchased from Becton, Dickinson and company (Franklin Lakes, New Jersey, USA).
(§2) Antimicrobial activities The minimum inhibitory concentrations (MICs) of the control antibiotics (gentamicin and imipenem), PMB, D-TZP and TZP against Escherichia coli, Klebsiella pneumoniae and Pseudomonas aeruginosa strains were determined by the broth microdilution method, according to guidelines outlined by the Clinical and Laboratory Standards Institute (CLSI)^18. The bacterial stains were grown aerobically overnight on tryptone soy agar plates at 37° C. Afterwards, a bacterial solution equivalent to 0.5 McFarland standard was prepared and diluted in cation-adjusted Mueller-Hinton broth (CAMHB) to achieve a bacterial concentration of ˜5×10^5 CFU/mL. The treatments were added in the first row of the 96-well plates and serially diluted with media containing bacteria. Plates were incubated aerobically at 37° C. for 16-18 hours.

[2] = tested on: Klebsiella pneumoniae NR-41920
Excerpt: as §1, §2

[3] = tested on: Pseudomonas aeruginosa NR-50573
Excerpt: as §1, §2

[4] = tested on: Escherichia coli ATCC 2452
Excerpt: as §1, §2

| Compound | Minimum inhibitory concentration (MIC) [1] | Minimum inhibitory concentration (MIC) [2] | Minimum inhibitory concentration (MIC) [3] | Minimum inhibitory concentration (MIC) [4] | MIC ([1]; ATCC2469) | MIC ([2]; NR41920) | MIC ([3]; NR50573) | MIC ([4]; ATCC2452) |
| --- | --- | --- | --- | --- | --- | --- | --- | --- |
| gentamicin | >64 µg/mL | 64 µg/mL | 1 µg/mL | >64 µg/mL |  |  |  |  |
| C[C@@H](O)[C@H]1C(=O)N2C(C(=O)O)=C(SCCN=CN)C[C@H]12 [Imipenem, imipenem] |  |  |  |  | 16 µg/mL (≈ 53.4 µM) | 8 µg/mL (≈ 26.7 µM) | 1 µg/mL (≈ 3.34 µM) | 16 µg/mL (≈ 53.4 µM) |
